Data as given in patent publication US20210163929A1, “METHODS AND COMPOSITIONS FOR THE TREATMENT OF HEPATIC AND METABOLIC DISEASES” (The Regents of the University of California, priority 2018, published 2021).
Entries after “also recorded” stand apart in the source; their conditions may differ.

Experiments:
miR-22 in HCT116 cells [1] = test: miR-22 induction in HCT116 cells treated with bile acids or HDAC inhibitors; assay type: cell-based, human; conditions: CDCA 150 μM
Method: A time course study in which HCT116 cells were treated by 150 μM CDCA for indicated times. […] Data are presented as mean+/−S.D. * denotes p<0.05.
Data are shown as mean+/−S.D. * p<0.05; ** p<0.01; ***p<0.001.
OCA is a semi-synthetic bile acid, which as the structure of 6α-ethyl-chenodeoxycholic acid.

[2] = system: FGF21 signaling and miR-22 in Huh7 cells; test: mRNA and protein levels in Huh7 cells treated with OCA/INT-747, CDCA, butyrate or RA plus butyrate; assay type: cell-based, human; conditions: CDCA 150 μM
Method: (§1) Cell culture: Huh7 cells were obtained from Japanese Collection of Research Bioresources and maintained in DMEM with 10% FBS. Cells were treated with DMSO, OCA (5 or 20 μM; Apexbio Technology LLC, Houston, Tex., USA) in serum-free media for indicated time. Cells were plated (1×10^6 cells per 60-mm dish, 2×10^5 cells per 6-well plates, and 1×10^5 cells per 24-well plates) overnight prior to treatment or infection.
Gene expression quantification: Total RNA was extracted using TRIzol Reagent (Thermo Fisher Scientific, Waltham, Mass., USA), and cDNA was generated using High Capacity RNA-to-cDNA Kit (Applied Biosysterms, Carlsbad, Calif., USA). qRT-PCR was performed on ABI 7900HT Fast Real-time PCR system using Power SYBR® Green PCR Master Mix (Applied Biosysterms).
(§2) Western blot: Western blot was performed as described previously (26). Antibodies used were anti-FGFR1, FGF21, FASN, phosphor (P)-AMPK, total (T)-AMPK, phosphor (P)-ERK1/2, and total (T)-ERK1/2 (Cell Signaling Technology, Beverly, Mass., USA), β-ACTIN (MilliporeSigma), CD36 (Bioss Antibodies Inc., Woburn, Mass., USA), CYCLIN A2, PGC1α (Novus Biologicals, LLC, Littleton, Colo., USA), and PPARα (Santa Cruz Biotechnology, Santa Cruz, Calif., USA).

miR-22 in HCT116 cells [3] = test: miR-22 induction in HCT116 cells treated with bile acids or HDAC inhibitors; assay type: cell-based, human; conditions: 24 hours, CDCA 50, 100, 150 μM, OCA 25 and 50 μM
miR-22 = conditions: published data; cited from earlier work
[4] = system: FGF21 signaling in Huh7 cells; test: Huh7 cells infected/transfected with miR-22 or miR-22 inhibitors, mRNA and Western blot; assay type: cell-based, human
Excerpt: However, miR-22 was induced in the livers and adipose tissues of WD-fed mice (FIG. 15B). Similarly, using human liver biopsy specimens, miR-22 levels were positively associated with hepatic fat content and inversely correlated with the mRNA levels of PGC-1α, a key regulator of mitochondrial biogenesis (FIG. 15C). […] To study the downstream effects of miR-22, miR-22 mimics (ID: MIMAT0000077, […] (SEQ ID NO:2), Applied Biological Materials Inc.) were used to transfect human liver Huh7 cells.
as §1
(§3) Constructs and luciferase reporter assay: The 3′ untranslated region (3′-UTR) of the FGFR1 gene containing the putative binding site for miR-22 and the entire 3′-UTR of the FGF21 gene (105 bp) was cloned into the psiCHECK2 vector (Promega, Madison, Wis., USA) using NotI and XhoI. For cell infection, adenovirus (negative control), adenoviral-delivered miR-22 (miR-22), or adenoviral-miR-22 inhibitors (SEQ ID NO:1; Applied Biological Materials Inc., Richmond, BC) were used. Forty-eight h post infection, cells were transfected with psiCHECK2-FGR1-3′UTR or psiCHECK2-FGF21 3′UTR using Lipofectamine 2000 (Thermo Fisher Scientific). Twenty-four h later, cells were harvested for firefly and Renilla luciferase assay using the Dual-luciferase Reporter system (Promega). Renilla luciferase activity was standardized to firefly luciferase activity.
as §2

3′UTR of FGFR1 = test: Luciferase reporter assay, psiCHECK2-FGFR1 3′UTR in Huh7 cells; assay type: cell-based, human; conditions: 48 h infection then reporter transfection
Excerpt: as §3

3′UTR of FGF21 = test: Luciferase reporter assay, psiCHECK2-FGF21 3′UTR in Huh7 cells; assay type: cell-based, human; conditions: 48 h infection then reporter transfection
Excerpt: as §3

[5] = system: PPREs in the regulatory region of FGF21; test: ChIP-qPCR of PPARα and PGC1α occupancy in Huh7 cells; assay type: cell-based, human; conditions: miR-22 overexpression
Method: Chromatin immunoprecipitation (ChIP)-qPCR: ChIP-qPCR was performed based on a previous publication (27). Briefly, chromatin lysate was precleared before incubation with anti-PGC1α (Novus Biologicals) and anti-PPARα (Santa Cruz Biotechnology). IgG (Santa Cruz Biotechnology) and RNA Polymerase II antibody (MilliporeSigma) was used as negative and positive control, respectively. Samples were incubated with Dynase beads at 4° C. overnight followed by de-crosslinking and purification. DNA fragments generated served as templates for qPCR using Power SYBR Green PCR Master Mix.

[6] = system: HDAC1, HDAC4 and CYCLIN A2 in Huh7 and HCT116 cells; test: Deacetylase protein levels after miR-22 in Huh7 and HCT116 cells; assay type: cell-based, human
[7] = system: Western diet-induced steatosis in C57BL/6 mice; test: Pilot study in Western diet-fed mice, tail vein adenoviral miR-22 mimics or inhibitors; assay type: in vivo, mouse
Method: Wild type C57BL/6 mice were fed with a high fat and high sucrose (21.2% fat, 34% sucrose, and 0.2% cholesterol) Western diet (WD) since weaning (3 weeks). When mice were 2.5 months old, they received adenoviral-delivery of miR-22 mimics or miR-22 inhibitors (i.e., SEQ ID NO:1) via tail vein injection (1×10^9 PFU/100 μl saline, 3 doses in 10 days). […] In addition, hepatic Pgc1α mRNA level was reduced by miR-22 mimics, but increased by miR-22 inhibitors (FIG. 10).
To further analyze the role miR-22 in regulating hepatic metabolism, we have done pilot studies to test the effect of miR-22 in non-alcoholic and alcoholic steatohepatitis. Steatosis was induced by feeding mice with a WD that has high fat and high sucrose content since weaning (3-weeks old). After 2 months of differential diet feeding, mild steatosis was found in WD-fed mice. Then, those WD-fed mice received adenoviral-control, adenoviral-delivered miR-22 mimics, or miR-22 inhibitors (i.e., SEQ ID NO:1) via tail vein injection (1×10^9 pfu/200 μl, 3 doses, weekly) while continuing a WD. […] These exciting findings indicate that forced miR-22 expression in WD-fed mice potentially can be a novel NASH model.

[8] = system: alcohol-induced steatosis in C57BL/6 mice; test: Alcohol-induced steatosis in mice treated with adenoviral miR-22 inhibitors; assay type: in vivo, mouse; conditions: FIG. 29E
Excerpt: We performed another pilot experiment to test the effect of miR-22 inhibitors in reducing alcohol-induced steatosis. The same method described above for FIG. 2C was used to induce steatosis followed by miR-22 inhibitor treatment through tail vein injection.
Additionally, alcohol was used to induce fatty liver. Mice were on Liber DeCarli liquid diet supplemented with 5% alcohol for 3 weeks followed by delivery of adenoviral-control and adenoviral-miR-22 inhibitors using the same methods described above. During the interventions, mice continued having alcohol-supplemented liquid diet.
3-month old WT male mice were fed with Liber DeCarli diet with 5% alcohol supplementation for 3 weeks followed by adenovirus delivery of miR-22 inhibitor (1×10^9PFU) through tail vein injection (3 times in 10 days). The empty adenovirus was used as a negative control. The mice were killed 1 day after the last injection. Steatosis scored was graded on a scale of a scale of 0 (<5%), 1 (5-33%), 2 (34-66%), and 3 (>66%). […]
Biochemical analysis: Hepatic triglyceride and cholesterol (BioAssay Systems, Hayward, Calif., USA) levels and serum lipopolysaccharide (LPS) (Thermo Fisher Scientific), alanine transaminase (ALT) (Pointe Scientific), and alkaline phosphatase (ALP) (Pointe Scientific) levels were quantified according to the manufacturer's instructions.

[9] = system: mice after 2/3 liver resection; test: 2/3 liver resection in mice given miR-22 inhibitors or mimics; assay type: in vivo, mouse; conditions: compared to other groups
Method: The data presented in FIGS. 38 and 39 further support the usefulness of miR-22 inhibition. For the experiments used to generate the data in FIG. 38, mice received miR-22 inhibitors or miR-22 mimics via tail vein injection 3 days prior to 2/3 liver resection (1×10^9 pfu in 100 μL saline, one injection per day). Mice were killed on day 0 (immediately after liver resection) or 2 days later.

[10] = WD-fed C57BL/6 mice 2.5 months old, tail vein 1×10^9 PFU/100 μl, 3 doses in 10 days

Compound | FGF21 and miR-22 levels (miR-22 in HCT116 cells [1]) | FGF21 and miR-22 levels [2] | miR-22 level (miR-22 in HCT116 cells [3]) | miR-22 induction (miR-22) | expression of βKlotho [4] | total AMPK [4] | PPARα and PGC1α protein levels ([4]; 48 h post infection) | AMPK and ERK1/2 activation (P-AMPK, P-ERK1/2) ([4]; miR-22 overexpression) | FGF21 and FGFR1 (SIRT1, p-AMPK) levels ([4]; miR-22 overexpression) | FGF21 and FGFR1 (SIRT1, p-AMPK) levels ([4]; miR-22 overexpression, listed as miR-22) | luciferase activity driven by FGFR1 3′UTR (3′UTR of FGFR1) | luciferase activity driven by FGF21 3′UTR (3′UTR of FGF21) | occupancy of PPARα and PGC1α in the two PPREs of FGF21 [5] | protein level of HDAC1, HDAC4 and CYCLIN A2 [6] | hepatic Pgc1α mRNA level [7, 10] | hepatic lymphocyte infiltration [7, 10] | severity of steatosis / hepatic fat content [7, 10] | liver histology (hepatic fat content, lymphocyte infiltration) ([7]; WD-fed mice after 2 months of diet, tail vein 1×10^9 pfu/200 μl, 3 doses, weekly) | hepatic gene expression (PGC1α, CPT1, SREBP-1c, FASN, TNFα) [8] | liver-to-body weight ratio and fat-to-body weight ratio [9]
C[C@H](CCC(=O)O)[C@H]1CC[C@H]2[C@@H]3[C@H](O)C[C@@H]4C[C@H](O)CC[C@]4(C)[C@H]3CC[C@]12C [CDCA, chenodeoxycholic acid] | induced FGF21 and miR-22 levels | induced FGF21 and miR-22 levels | induced miR-22 | induced |  |  |  |  |  |  |  |  |  |  |  |  |  |  |  | 
miR-22 mimics: miR-22 mimics (ID: MIMAT0000077, AAGCUGCCAGUUGAAGAACUGU, SEQ ID NO:2), transfected or adenoviral-delivered (chemistry not given here; listed as Homo sapiens) |  |  |  |  | did not affect the expression of βKlotho | had no effect on total AMPK | reduced PPARα and PGC1α | AMPK and ERK1/2 deactivation | reduced the protein level of FGF21, FGFR1 and p-AMPK; also recorded: reduced the protein level of FGF21, FGFR1, and SIRT1 | reduced FGF21 and FGFR1 at both mRNA and protein levels | decreased the luciferase activity | neither miR-22 nor miR-22 inhibitors changed the luciferase activity | substantially reduced | reduced the protein level of HDAC1 and HDAC4 as well as CYCLIN A2 | reduced | induced hepatic lymphocyte infiltration | increased the severity of steatosis | increased hepatic fat content and lymphocyte infiltration | reduced PGC1α and CPT1, but increased SREBP-1c, FASN, and TNFα | substantially higher
